# Counter-ions that a name gives are not always drawn.
# How the values were obtained:
# DBA/2N type mice = assay: Audiogenic seizure suppressing effect; assay type: in vivo; settings: Mus musculus, ip, 20 min, compound 10 mg/kg, i.p.; audio stimulus after 20 minutes; suppression of average seizure score; read-out: Antiseizure effect (suppression rate %)
# Method: Audiogenic Seizure Suppressing Effect
# The audiogenic seizure suppressing effect of the compounds was evaluated by the method of Sarro et al. [G. B. De Sarro et al., Br. J. Pharmacol., 93, 247 (1988)]. That is, the compound dissolved in 10% 2-hydroxypropyl-β-cyclodextrin was administered intraperitoneally to DBA/2N type mice (male, 3 weeks old). After 20 minutes, a supersonic washer was used to apply audio stimulus of at least 90 dB for one minute. The wild running (WR), clonic seizures (clonus), tonic seizures (tonus), and respiratory arrest (RA) were observed.
# T-type Ca^2+ channel = assay: T-type calcium channel inhibitory effect (whole-cell patch clamp, hippocampal CA1 pyramidal cells); settings: read-out: T-type Ca^2+ channel inhibitory effect IC50; suppression of peak current after one minute of application; rat hippocampal CA1 pyramidal cells
# Method: T-Type Calcium Channel Inhibitory Effect
# The hippocampal CA1 pyramidal cells were isolated from Wistar rats (female, 1 week old) according to the method reported by Takahashi et al. [K. Takahashi et al.; J. Pharmacol. Exp. Ther., 256, 169 (1991)] and the T-type calcium current under conditions of a fixed membrane potential was measured using the whole-cell configration of the patch clamp technique. The effects of the compounds were evaluated from the rate of suppression of the peak current after one minute of application using the concentration clamp method.
# Sodium channel = assay: Inhibitory effect of veratrizine-induced sodium channel activity (synaptosome membrane potential, Rhodamine 6G); assay type: biochemical, Wistar rats; settings: compound 0.1 μM, rat brain synaptozomes, veratridine-induced depolarization
# Method: Inhibitory Effect of Veratrizine-induced Sodium Channel Activity
# The membrane potential of the synaptozomes prepared from the brain membrane of Wistar rats (male, 10 to 12 weeks old) was measured by the method of Aiuchi et al. (t. Aiuchi et al: Biochimi. Biophys. Acta. 771, 228 (1984)) using a membrane potential sensitive fluorescent dye Rhodamine 6G to evaluate the effects of suppression of the compound on the veratrizine-inducing depolarization response.
# [1] = Acute toxicity after intravenous injection; settings: mouse, in vivo, ddY mice (male, 6 weeks old), death rate up to 24 hours, read-out: 50% lethal dosage LD50 of acute toxicity
# From the text: The compound according to the present invention is low in toxicity.
SMILES,melting point,inhibition in vivo at 10 mg/kg (DBA/2N type mice),IC50 (T-type Ca^2+ channel),Anti-veratridine effect (inhibiting rate %) (Sodium channel),LD50 at 24 h [1],Anti-veratridine effect (inhibiting rate %) (Sodium channel; 0.1 µM)
OC1(c2ccc(Oc3ccc(F)cc3)cc2)CCN(C/C=C/c2ccccc2)CC1 (as salt: fumarate),148 to 150 °C,–,–,–,–,–
O[C@H](COc1ccccc1)CN1CCC(O)(c2ccc(Oc3ccc(F)cc3)cc2)CC1 (as salt: fumarate),48 to 50 °C,–,–,–,–,–
"OC1(c2ccc(Oc3ccccc3)cc2)CCN(C/C=C/c2ccccc2)CC1 [Compound 34, (E)-4-(4-phenoxy)phenyl-1-(3-phenyl-2-propenyl)-4-piperidinol]",–,80%,1700 nM,29.9%,–,–
"O[C@H](COc1ccccc1)CN1CCC(O)(c2ccc(-c3ccccc3)c(F)c2)CC1 [Compound 42, (S)-4-(3-fluoro-4-phenyl)phenyl-1-(2-hydroxy-3-phenoxy)propyl-4-piperidinol]",–,72%,550 nM,21%,–,–
O=C(CN1CCC(O)(c2ccc(Oc3ccc(F)cc3)cc2)CC1)c1ccccc1 (as salt: fumarate),50 to 52 °C,–,–,–,–,–
"OC1(c2ccc(-c3ccccc3)c(F)c2)CCN(C/C=C/c2ccccc2)CC1 [Compound 17, (E)-4-(3-fluoro-4-phenyl)phenyl-1-(3-phenyl-2-propenyl)-4-piperidinol]",–,88%,1900 nM,26.8%,32 mg/kg,–
"OC(COc1ccccc1)CN1CCC(O)(c2ccc(Cc3ccc(F)cc3)cc2)CC1 (stereo not shown) [Compound 39, 4-[4-(4-fluorophenyl)methylphenyl]-1-(2-hydroxy-3-phenoxy)propyl-4-piperidinol]",–,90%,1300 nM,–,–,18.7%
"O[C@@H](COc1ccccc1)CN1CCC(O)(c2ccc(-c3ccccc3)c(F)c2)CC1 [Compound 43, (R)-4-(3-fluoro-4-phenyl)phenyl-1-(2-hydroxy-3-phenoxy)propyl-4-piperidinol]",–,90%,1400 nM,21.2%,–,–
